Values of other authors as cited in patent US9039924B2 (priority 2010, dated 2015).

Test system: rat
Settings: in vivo; for LD50 values below 1000 or toxic: po

NC(N)=O [CO(NH2)2, urea]
LD50 (oral-rat; mg/kg): 8471 mg/kg

N#C[O-].[K+] [KCNO, potassium cyanate]
LD50 values below 1000 or toxic: below 1000

O=N[O-].[K+] [KNO2, potassium nitrite]
LD50 values below 1000 or toxic: below 1000

O.O.O.O.O.O=S([O-])([O-])=S.[Na+].[Na+] [Na2S2O3•5H2O, sodium thiosulfate pentahydrate]
LD50 (oral-rat; mg/kg): 2300 mg/kg

N#CO [NaCNO, sodium cyanate]
LD50 (oral-rat; mg/kg): 5 mg/kg
LD50 values below 1000 or toxic: below 1000

O=NO [NaNO2, sodium nitrite]
LD50 values below 1000 or toxic: below 1000

ammonium thiocyanide [NH4CNS]
LD50 (oral-rat; mg/kg): 954 mg/kg
LD50 values below 1000 or toxic: below 1000

potassium bromide [KBr]
LD50 (oral-rat; mg/kg): 3070 mg/kg

potassium chloride [KCl]
LD50 (oral-rat; mg/kg): 2600 mg/kg

potassium fluoride dihydrate [KF•2(H2O)]
LD50 (oral-rat; mg/kg): 245 mg/kg
LD50 values below 1000 or toxic: below 1000

potassium iodide [KI]
LD50 (oral-rat; mg/kg): 1862 mg/kg

potassium thiosulfate pentahydrate [K2S2O3•5H2O]
LD50 (oral-rat; mg/kg): 802 mg/kg
LD50 values below 1000 or toxic: below 1000
